Laboratory results: patent US8012487B2, “Synthetic peptides and DNA sequences for treatment of multiple sclerosis” (priority 2001, dated 2011)
Where no end group is shown, it is not given here.

Experiments:
[1] = tested on: EAE induced with MBP, MOG or MBP/MOG combination; settings: (PL/J×SJL/J) F1 mice, cited from earlier work
[2] = tested on: EAE induced by Y-MSPb-reactive line T-cells; test: EAE associated with multiple pathogenic autoreactivities induced by transfer of Y-MSPb-reactive line T-cells; type: in vivo, (C3H.SW×SJL/J)F1 mice; settings: in PBS given daily i.p. from the day of T-cell transfer; FIG. 9B
Procedure: Y-MSPb, the purified protein product of the synthetic Y-MSPb gene, disclosed in WO 01-31037, designed to encode tandemly arranged disease-relevant epitopes clusters of the encephalitogenic proteins MBP, PLP, MOG, and MOBP, was tested for its immunomodulatory effect on EAE associated with multiple pathogenic autoreactivities, upon tolerogenic administration, in the same way as described for Y-MSPa in WO 01-31037.
Line T-cells were selected in vitro with Y-MSPb from lymph node cells (LNCs) of (C3H.SW×SJL/J)F1 mice immunized with Y-MSPb (containing encephalitogenic epitopes of MOG, MBP, PLP and MOBP) in CFA, and were analyzed after primary response (left panel) and after four cycles of selection (right panel) for their proliferative response to Y-MSPb, phMOG 34-56, phMOG 1-22, shMOG/E, PLP 139-151, shPLP/E, MBP 87-101 and shMBP/E (10 μ/ml). The proliferative response to purified protein derivative (PPD) (5 μ/ml) was analyzed as a measure of specificity. The line T cells are directed against each of the myelin autoantigens.

lymph node cells = test: Ex vivo response to MOG 37-52 by lymph node cells isolated from treated mice; type: cell-based; settings: cells from APL-treated C3H.SW mice
[3] = tested on: H-2^b haplotype mice (C3H.SW, C57BL); test: Encephalitogenicity of T-cell responses elicited by APLs; type: in vivo; settings: H-2^b mice; not shown
Source text: (§1) For EAE induced in H-2^b haplotype mice (C3H.SW, C57BL) by MOG 35-55 (SEQ ID NO: 234), we have defined residues 41 and 44 as crucial TCR contact residues for the interaction between the encephalitogenic nonameric core sequence MOG 40-48, found by molecular modelling studies to represent the preferred binding mode for MOG 35-55 to IA^b, and the TCR of H-2^b MOG-specific T-cells. APLs with non-conservative substitutions at either or both of these residues elicited T-cell responses which were not encephalitogenic (not shown). In vitro, these APLs inhibited the proliferation of T-cell clones to MOG 37-52, the minimal optimal stimulatory peptide. […] MOG35-55-specific T-cell line was raised from MOG35-55-immunized C3H.SW mice as described (Mendel et al., 1996). Cytokine assays were performed by ELISA according to PharMingen standard protocols.

TCR = TCR signaling in MOG 37-52-reactive T-cell clones; type: cell-based, mice; settings: peptide alone; not shown
Procedure: Possible mechanisms by which the relevant APLs may inhibit MOG 37-52-reactive T-cell clones in vitro were tested by analyzing their effect on TCR signaling, as well as on cytokine secretion by the clones.

[4] = tested on: EAE induced with MOG 37-52; test: EAE induced with MOG 37-52, treatment with MOG APLs; type: in vivo; settings: C3H.SW mice; 400 μg in PBS i.v. on days 5, 7, 9 and 12 after encephalitogenic challenge; FIG. 8
[5] = tested on: APL-specific T-cell lines; test: Cytokine profile of APL-specific T-cell lines (ELISA); type: cell-based, mice; settings: pilot studies, not shown
Source text: as §1

[6] = tested on: chronic EAE induced with whole PLP; settings: SJL/J mice; tolerization; cited from earlier work

## MBPAc1-11: immunodominant encephalitogenic epitope within MBP (Ac-MGNHSGKRELS; UniProt P04370 1-11, looked up, fragment)
[1]
  MBP-induced EAE: suppresses
  MOG-induced EAE: no effect
[1]; tolerogenic administration
  clinical severity of EAE induced with a combination of MBP and MOG: marginal therapeutic effect

## MOG 37-52: native MOG peptide, the minimal optimal stimulatory peptide (VGWYRPPFSRVVHLYR; Synthetic peptide containing sequence 37-52 of MOG.)
[2]
  EAE induced by Y-MSPb-reactive line T-cells: disease incidence or severity: no significant effect

## MOG 37-A44-52: APL of MOG 37-52 wherein F44 is substituted by A44 (VGWYRPPASRVVHLYR; The peptide of SEQ ID NO231 in which the residue at position 8 was replaced by Ala.)
Lymph node cells
  response ex vivo to MOG 37-52 by lymph node cells isolated from treated mice: markedly reduced response
[3]
  encephalitogenicity of the APL / of the T-cell responses it elicits: non-encephalitogenicity
TCR
  TCR signaling in the T-cell clones: induces partial TCR signaling
[4]
  severity and incidence of EAE induced with the native MOG 37-52: marked decrease
[5]
  cytokine profile of APL-specific T-cell lines: elicits Th2 T-cells

## MOG 37-Q41-52: MOG 37-52 altered peptide ligand substituted at TCR contact residue 41 (VGWYQPPFSRVVHLYR; The peptide of SEQ ID NO231 in which the residue at position 5 was replaced by Gln.)
Lymph node cells
  response ex vivo to MOG 37-52 by lymph node cells isolated from treated mice: markedly reduced response
[4]
  severity and incidence of EAE induced with the native MOG 37-52: marked decrease

## PLP139-151: major encephalitogenic peptide of PLP (CHCLGKWLGHPDK; UniProt P60202 139-151, looked up, fragment)
[6]
  chronic EAE induced with whole PLP: acute phase and relapses: abrogated the primary acute phase, but not subsequent relapses
[2]
  EAE induced by Y-MSPb-reactive line T-cells: disease incidence or severity: no significant effect
